Experiments:
Format in all cases: in vivo
[1] = system: Italian ryegrass (Lolium multiflorum); test: Test B pre-/postemergence plant response
How it was run: (§1)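 Seeds were sown and sprayed preemergence, while plants at 2 to 18 cm (1- to 4-leaf stage) got postemergence sprays. Compounds were formulated in a non-phytotoxic solvent mixture with surfactant. After 13 to 15 days in a greenhouse, injury was rated visually against untreated controls, 0 (no effect) to 100 (complete control).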

[2] = system: Russian thistle (Salsola iberica); test: Test B pre-/postemergence plant response; settings: Preemergence; for Russian Thistle plant response rating: scale 0 to 100
How it was run: as §1

[3] = system: bermudagrass (Cynodon dactylon); test: Test B pre-/postemergence plant response; settings: for Bermudagrass plant response rating: 8 g ai/ha
How it was run: as §1

[4] = system: cocklebur (Xanthium strumarium); test: Test B pre-/postemergence plant response; settings: for Cocklebur plant response rating: 8 g ai/ha
How it was run: as §1

[5] = system: eastern black (E.B.) nightshade (Solanum ptycanthum); test: Test B pre-/postemergence plant response; settings: Preemergence; for Nightshade, E. B. plant response rating: scale 0 to 100
How it was run: as §1

[6] = system: goosegrass (Eleusine indica); test: Test B pre-/postemergence plant response
How it was run: as §1

[7] = system: green foxtail (Setaria viridis); test: Test B pre-/postemergence plant response
How it was run: as §1

[8] = system: johnsongrass (Sorghum halepense); test: Test B pre-/postemergence plant response
How it was run: as §1

[9] = system: large crabgrass (Digitaria sanguinalis); test: Test B pre-/postemergence plant response
How it was run: as §1

[10] = system: morningglory (Ipomoea coccinea); test: Test B pre-/postemergence plant response
How it was run: as §1

soybean (Glycine max) = test: Test B pre-/postemergence plant response
How it was run: as §1

[11] = system: surinam grass (Brachiaria decumbens); test: Test B pre-/postemergence plant response
How it was run: as §1

[12] = system: wheat (Triticum aestivum); test: Test B pre-/postemergence plant response
How it was run: as §1

[13] = system: chickweed (Stellaria media); test: Test B postemergence plant response; settings: for Plant response rating, Chickweed: Postemergence
How it was run: (§2)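 Scoring: 0 means no effect and 100 complete control, judged by eye against controls after 13–15 days under greenhouse conditions following postemergence application at 2–18 cm plant height.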

[14] = system: windgrass (Apera spica-venti); test: Test B postemergence plant response; settings: for Plant response rating, Windgrass: Postemergence
How it was run: as §2

[15] = system: winter barley (Hordeum vulgare); test: Test B postemergence plant response; settings: for Plant response rating, Barley: Postemergence, scale 0 to 100, 0 no effect, 100 complete control
How it was run: as §2

[16] = 8 g ai/ha, postemergence, 0-100 scale
[17] = Postemergence, 16 g ai/ha, scale 0 to 100
[18] = Postemergence, 31 g ai/ha, scale 0 to 100
[19] = Postemergence, 62 g ai/ha, scale 0 to 100, 0 no effect, 100 complete control
[20] = Preemergence, 31 g ai/ha, scale 0 to 100 (0 no effect, 100 complete control)
[21] = Preemergence, 62 g ai/ha, 0 to 100 scale, 0 no effect, 100 complete control
[22] = Preemergence, 8 g ai/ha, scale 0 to 100
[23] = Preemergence, 16 g ai/ha, scale 0 to 100
[24] = 31 g ai/ha, scale 0 to 100 (0 no effect, 100 complete control)
[25] = 62 g ai/ha, 0 to 100 scale, 0 no effect, 100 complete control
[26] = Preemergence, 16 g ai/ha, scale 0 to 100 (0 no effect, 100 complete control)
[27] = 62 g ai/ha, scale 0 to 100, 0 no effect, 100 complete control

Structure (SMILES): CCCC(=O)Oc1cnn(C)c(=O)c1-n1nc(-c2ccc(Cl)cc2)cc1C [Compound 56]
- Ryegrass, Italian plant response rating [1, 16]: 0
- Plant response rating, Ryegrass, Italian [1, 17]: 40
- Plant response rating, Ryegrass, Italian [1, 18]: 60
- Plant response rating, Ryegrass, Italian [1, 19]: 65
- Plant response rating, Ryegrass, Italian [1, 20]: 98
- Plant response rating, Ryegrass, Italian [1, 21]: 100
- Ryegrass, Italian plant response rating [1, 22]: 60
- Ryegrass, Italian plant response rating [1, 23]: 98
- Plant response rating, Russian Thistle [2, 24]: 0
- Plant response rating, Russian Thistle [2, 25]: 0
- Russian Thistle plant response rating ([2]; 8 g ai/ha): 0
- Russian Thistle plant response rating ([2]; 16 g ai/ha): 0
- Bermudagrass plant response rating ([3]; postemergence, 0-100 scale): 65
- Plant response rating, Bermudagrass [3, 17]: 70
- Plant response rating, Bermudagrass [3, 18]: 95
- Plant response rating, Bermudagrass [3, 19]: 100
- Bermudagrass plant response rating ([3]; Preemergence, scale 0 to 100 (0 no effect, 100 complete control)): 85
- Plant response rating, Bermudagrass [3, 26]: 100
- Plant response rating, Bermudagrass [3, 20]: 100
- Plant response rating, Bermudagrass [3, 21]: 100
- Cocklebur plant response rating ([4]; postemergence, 0-100 scale): 0
- Plant response rating, Cocklebur [4, 17]: 0
- Plant response rating, Cocklebur [4, 18]: 0
- Plant response rating, Cocklebur [4, 19]: 0
- Plant response rating, Cocklebur [4, 26]: 0
- Plant response rating, Cocklebur [4, 20]: 0
- Plant response rating, Cocklebur [4, 21]: 0
- Cocklebur plant response rating ([4]; Preemergence, scale 0 to 100): 0
- Plant response rating, Nightshade, E. B. [5, 24]: 0
- Plant response rating, Nightshade, E. B. [5, 25]: 20
- Nightshade, E. B. plant response rating ([5]; 8 g ai/ha): 0
- Nightshade, E. B. plant response rating ([5]; 16 g ai/ha): 0
- Goosegrass plant response rating [6, 16]: 60
- Plant response rating, Goosegrass [6, 17]: 65
- Plant response rating, Goosegrass [6, 18]: 75
- Plant response rating, Goosegrass [6, 19]: 98
- Plant response rating, Goosegrass [6, 20]: 98
- Plant response rating, Goosegrass [6, 21]: 100
- Goosegrass plant response rating [6, 22]: 75
- Goosegrass plant response rating [6, 23]: 80
- Foxtail, Green plant response rating [7, 16]: 50
- Plant response rating, Foxtail, Green [7, 17]: 90
- Plant response rating, Foxtail, Green [7, 18]: 90
- Plant response rating, Foxtail, Green [7, 19]: 100
- Plant response rating, Foxtail, Green [7, 20]: 100
- Plant response rating, Foxtail, Green [7, 21]: 100
- Foxtail, Green plant response rating [7, 22]: 65
- Foxtail, Green plant response rating [7, 23]: 65
- Johnsongrass plant response rating [8, 16]: 0
- Plant response rating, Johnsongrass [8, 17]: 65
- Plant response rating, Johnsongrass [8, 18]: 85
- Plant response rating, Johnsongrass [8, 19]: 100
- Plant response rating, Johnsongrass [8, 20]: 70
- Plant response rating, Johnsongrass [8, 21]: 100
- Johnsongrass plant response rating [8, 22]: 60
- Johnsongrass plant response rating [8, 23]: 65
- Crabgrass, Large plant response rating [9, 16]: 65
- Plant response rating, Crabgrass, Large [9, 17]: 85
- Plant response rating, Crabgrass, Large [9, 18]: 95
- Plant response rating, Crabgrass, Large [9, 19]: 100
- Plant response rating, Crabgrass, Large [9, 20]: 100
- Plant response rating, Crabgrass, Large [9, 21]: 100
- Crabgrass, Large plant response rating [9, 22]: 0
- Crabgrass, Large plant response rating [9, 23]: 60
- Morningglory plant response rating [10, 16]: 0
- Plant response rating, Morningglory [10, 17]: 0
- Plant response rating, Morningglory [10, 18]: 0
- Plant response rating, Morningglory [10, 19]: 0
- Plant response rating, Morningglory [10, 20]: 0
- Plant response rating, Morningglory [10, 21]: 0
- Morningglory plant response rating [10, 22]: 0
- Morningglory plant response rating [10, 23]: 0
- Soybean plant response rating (soybean (Glycine max); [16]): 0
- Plant response rating, Soybean (soybean (Glycine max); [17]): 0
- Plant response rating, Soybean (soybean (Glycine max); [18]): 0
- Plant response rating, Soybean (soybean (Glycine max); [19]): 0
- Plant response rating, Soybean (soybean (Glycine max); [21]): 0
- Soybean plant response rating (soybean (Glycine max); [22]): 0
- Soybean plant response rating (soybean (Glycine max); [23]): 0
- Surinam Grass plant response rating [11, 16]: 70
- Plant response rating, Surinam Grass [11, 17]: 75
- Plant response rating, Surinam Grass [11, 18]: 98
- Plant response rating, Surinam Grass [11, 19]: 100
- Plant response rating, Surinam Grass [11, 20]: 100
- Plant response rating, Surinam Grass [11, 21]: 100
- Surinam Grass plant response rating [11, 22]: 75
- Surinam Grass plant response rating [11, 23]: 90
- Wheat plant response rating [12, 16]: 5
- Plant response rating, Wheat [12, 17]: 65
- Plant response rating, Wheat [12, 18]: 80
- Plant response rating, Wheat [12, 19]: 90
- Plant response rating, Wheat [12, 20]: 35
- Plant response rating, Wheat [12, 21]: 80
- Wheat plant response rating [12, 23]: 10
- Chickweed plant response rating [13, 16]: 0
- Plant response rating, Chickweed ([13]; 16 g ai/ha, scale 0 to 100): 0
- Plant response rating, Chickweed ([13]; 31 g ai/ha, scale 0 to 100): 0
- Plant response rating, Chickweed [13, 27]: 0
- Windgrass plant response rating [14, 16]: 0
- Plant response rating, Windgrass ([14]; 16 g ai/ha, scale 0 to 100): 0
- Plant response rating, Windgrass ([14]; 31 g ai/ha, scale 0 to 100): 20
- Plant response rating, Windgrass [14, 27]: 20
- Barley plant response rating [15, 16]: 0
- Plant response rating, Barley ([15]; 16 g ai/ha): 40
- Plant response rating, Barley ([15]; 31 g ai/ha): 50
- Plant response rating, Barley ([15]; 62 g ai/ha): 75
